Test results reported in patent publication US9221825B2, “Pyrazolopyrimidinone compound and imidazo triazone compound for treating erectile dysfunction” (Zhejiang Dade Pharmaceutical Group Co., Ltd., priority 2011, dated 2015).

System: adult sexual mature male Sprague-Dawley rats
Experiment: Efficacy test of the drug for anti-Erectile Dysfunction (copulation test)
Type: in vivo, rat
Conditions: for Catching times / Latent period of catch behavior / Riding times: intragastric administration
[1] = animal experiments, in comparison with Sildenafil
[2] = male Sprague-Dawley rats, dosage 2.2 mg/kg bw
[3] = male Sprague-Dawley rats, dosage 4.4 mg/kg bw
[4] = male Sprague-Dawley rats, dosage 8.8 mg/kg bw

With `CCCc1nn(C)c2c(=O)[nH]c(-c3cc(S(=O)(=O)N4CCCN(C)CC4)ccc3OCC)nc12.O=C(O)CC(O)(CC(=O)O)C(=O)O` [ED9001, 5-[2-ethoxy-5-(4-methyl-1-homopiperazinylsulfonyl)]-phenyl-1-methyl-3-n-propyl-1,6-dihydro-7H-pyrazolo[4,3-d]pyrimidine-7-one citrate] the Effective drug duration [1] was “longer”, the Onset time [1] was “shorter” and the “Effect on catching times in comparison with the solution control group” value (male Sprague-Dawley rats, P<0.05) was “distinct effect on improving catching times”. The Catching times [2] was 31 ± 9 times, the “Latent period of catch behavior” value [2] was 12.1 ± 3.6 s and the Riding times [2] was 24 ± 7 times. For the same compound, the Catching times [3] was 26 ± 9 times, the “Latent period of catch behavior” value [3] was 14.4 ± 7.5 s and the Riding times [3] was 21 ± 7 times. The Catching times [4] was 32 ± 9 times, the “Latent period of catch behavior” value [4] was 14.2 ± 4.9 s and the Riding times [4] was 27 ± 10 times.
With `CCCc1nn(C)c2c(=O)[nH]c(-c3cc(S(=O)(=O)N4CCN(C)CC4)ccc3OCC)nc12` [Sildenafil, reference compound] the Catching times [3] was 27 ± 6 times, the “Latent period of catch behavior” value [3] was 12.5 ± 6.5 s and the Riding times [3] was 24 ± 7 times.
